Results taken from US7396854B2, “Use of serotonergic compound for a method of treatment of hot flushes in post-menopausal women” (N.V. Organon, priority 2001, dated 2008).
Structures can show the parent of a compound that is named as a salt.

System: Male rats (HSD/Cpb:WU)
Assay: telemetric body temperature measurements in freely moving rats (rise in core body temperature after manipulation for injection)
Assay type: in vivo
Settings: subcutaneous, 22 mg/kg
Text: Male rats (HSD/Cpb:WU, Harlan Sprague Dawley, Zeist, The Netherlands), weighing 350-480 g, were used. The rats were implanted with a Physio Tel TA11CTA-F40 Implant (Data Sciences International) under pentobarbital anesthesia. After surgery the rats were housed individually in a type II clear MACROLON™ cage (23×17××14 cm). The cages were placed on receivers (RLA 1020). After a recovery and adaptation period of at least one week the rats were used for the experiments. On the experimental day, body temperature, heart rate and locomotor activity was monitored for 30 minutes prior to injection of vehicle or test compound. This period provides a baseline core body temperature relative to which the changes of body temperature after the manipulation of the rats for injection are expressed. After 30 minutes the rats were injected subcutaneously with vehicle or test compound and the same parameters were measured for at least 60 minutes. Immediately after injection the core body temperature rises. Compounds inhibiting this rise in temperature reveal an inhibiting effect on acute body heat production. Results obtained with other parameters, such as the effect on heart rate and on locomotor activity are not presented here. 6 animals were used for measurement of each dose of compound
Data were analyzed using Dataquest IV Data Acquisition System Ver 2.2.
Compounds were dissolved in NaCl 0.9% (m/v) in water as vehicle for subcutaneous injection.

CNCCC(Oc1ccc(C(F)(F)F)cc1)c1ccccc1 (stereo not drawn) [Fluoxetine, Fluoxetine HCl, reference compound]
absolute mean increments in body temperature relative to baseline during 30 minutes prior to manipulation (5 minutes after injection): 0.28 °C
absolute mean increments in body temperature relative to baseline during 30 minutes prior to manipulation (10 minutes after injection): 0.59 °C
absolute mean increments in body temperature relative to baseline during 30 minutes prior to manipulation (15 minutes after injection): 0.71 °C
absolute mean increments in body temperature relative to baseline during 30 minutes prior to manipulation (20 minutes after injection): 0.72 °C
absolute mean increments in body temperature relative to baseline during 30 minutes prior to manipulation (25 minutes after injection): 0.66 °C
absolute mean increments in body temperature relative to baseline during 30 minutes prior to manipulation (30 minutes after injection): 0.56 °C
absolute mean increments in body temperature relative to baseline during 30 minutes prior to manipulation (35 minutes after injection): 0.55 °C
absolute mean increments in body temperature relative to baseline during 30 minutes prior to manipulation (40 minutes after injection): 0.45 °C
absolute mean increments in body temperature relative to baseline during 30 minutes prior to manipulation (45 minutes after injection): 0.38 °C
absolute mean increments in body temperature relative to baseline during 30 minutes prior to manipulation (50 minutes after injection): 0.27 °C
absolute mean increments in body temperature relative to baseline during 30 minutes prior to manipulation (55 minutes after injection): 0.29 °C
absolute mean increments in body temperature relative to baseline during 30 minutes prior to manipulation (60 minutes after injection): 0.85 °C
